Our source for the TGI and GI50 values is PubChem BioAssay (NCI).

Among the test systems are SF-539 CNS; SNB-75 CNS; M14 melanoma; TK-10 renal; COLO 205 colon; HT29 colon; LOX IMVI melanoma; NCI-H522 lung; UO-31 renal; MCF7 breast.
Common to all, as to test: NCI-60 cell line screen, 48 h

Each structure is given as a SMILES string.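 Values below derive from 48-hour exposures of cells grown in 96-well plates, with endpoints linearly interpolated between the two concentrations bracketing the appropriate inhibition level. GI50 = concentration required for 50% inhibition of growth. TGI denotes the concentration required for complete inhibition of growth.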

Turning to `COc1ccc2c(c1)c(=O)c1c(NCCN(C)C)ccc3nnn2c31`, the TGI with SF-539 CNS is 15.9 µM; in the test with SNB-75 CNS, 20.7 µM; in the test on M14 melanoma, 16.2 µM; with TK-10 renal, 13.3 µM; in the test with COLO 205 colon, 10 µM; with HT29 colon, 12.3 µM. The TGI was 2.9 µM with LOX IMVI melanoma, 15.8 µM with NCI-H522 lung and 13.3 µM in the test on UO-31 renal.

Take `CC(CN(C)C)C(=O)c1ccccc1` (configuration not stated): the TGI with SF-539 CNS is greater than 100 µM; with SNB-75 CNS, greater than 100 µM; in the test on M14 melanoma, greater than 55 µM; in the test on TK-10 renal, greater than 100 µM; in the test on COLO 205 colon, greater than 67.5 µM; in the test on HT29 colon, 41.3 µM. Further, the TGI is 31.7 µM in the test on LOX IMVI melanoma, 4.32 µM with NCI-H522 lung and greater than 31.6 µM in the test on UO-31 renal.

As to `NC(Cc1ncccn1)C(=O)O` (configuration not stated), the TGI with SF-539 CNS, with SNB-75 CNS, in the test with M14 melanoma, in the test on TK-10 renal, in the test with MCF7 breast and with COLO 205 colon was greater than 100 µM throughout. For the same compound, the TGI in the test with HT29 colon, with LOX IMVI melanoma, with NCI-H522 lung and with UO-31 renal was greater than 100 µM throughout.

Take `O=C(NCCNc1nccc(-c2c(-c3cccc(O)c3)nc3sccn23)n1)c1ccccc1`: the GI50 with SF-539 CNS is 11.3 µM; with SNB-75 CNS, 3.27 µM; in the test on M14 melanoma it was 0.434 µM; in the test with TK-10 renal, 11.7 µM; in the test on MCF7 breast, 3.24 µM; in the test with COLO 205 colon, 3.99 µM. In addition, the GI50 in the test on HT29 colon was 6.8 µM; with LOX IMVI melanoma, 3.22 µM; in the test with NCI-H522 lung, 5.76 µM; in the test on UO-31 renal it was 12.2 µM. Moreover, the TGI in the test on SF-539 CNS amounted to 36.8 µM; with SNB-75 CNS, 28.1 µM; in the test on M14 melanoma, 12.3 µM; with TK-10 renal, 37.1 µM; in the test on MCF7 breast, 14.9 µM; in the test on COLO 205 colon, 23.8 µM. For the same compound, the TGI amounted to 38.3 µM in the test on HT29 colon, 17.8 µM in the test on LOX IMVI melanoma, 25.5 µM with NCI-H522 lung and 88.7 µM with UO-31 renal.

As for `ClCc1cccc(CSc2ncnc3c2ncn3Cc2cccc(CCl)c2)c1`, the GI50 is 1.58 µM in the test on SF-539 CNS; 1.51 µM with SNB-75 CNS; 1.71 µM in the test on M14 melanoma; 1.93 µM with TK-10 renal; 1.59 µM in the test with MCF7 breast; 1.88 µM in the test on COLO 205 colon. In addition, the GI50 with HT29 colon was 2.04 µM; in the test with LOX IMVI melanoma it was 1.4 µM; in the test on NCI-H522 lung, 1.42 µM; in the test with UO-31 renal it was 1.74 µM. In addition, the TGI is 4.31 µM in the test on SF-539 CNS; 2.93 µM with SNB-75 CNS; 3.23 µM in the test with M14 melanoma; 3.61 µM with TK-10 renal; 3.3 µM with MCF7 breast; 3.43 µM in the test on COLO 205 colon. Also, the TGI with HT29 colon stood at 3.74 µM; with LOX IMVI melanoma, 2.74 µM; in the test on NCI-H522 lung, 3.42 µM; with UO-31 renal it was 3.93 µM.

As to `O=S(=O)(O)c1ccc2c(N=Nc3ccc(Cl)cc3)c(O)ccc2c1`, the TGI in the test on SNB-75 CNS, with M14 melanoma, with TK-10 renal, in the test with COLO 205 colon, in the test with HT29 colon and in the test with LOX IMVI melanoma was greater than 100 µM throughout. Besides, the TGI with NCI-H522 lung and in the test on UO-31 renal was greater than 100 µM in each case.

On to `CC(C)/C(=N\[N+](C)(C)C)c1ccccc1`, for which the TGI in the test on SF-539 CNS, in the test with SNB-75 CNS, with M14 melanoma, in the test with TK-10 renal, with MCF7 breast and in the test with COLO 205 colon was greater than 100 µM each time. Further, the TGI in the test with HT29 colon, in the test on LOX IMVI melanoma, with NCI-H522 lung and in the test with UO-31 renal was greater than 100 µM throughout.

`CCOC(=O)Cc1cnc(NC(NC(=O)CC)(C(F)(F)F)C(F)(F)F)s1`: the TGI in the test on SF-539 CNS, with SNB-75 CNS, with M14 melanoma, in the test with TK-10 renal, in the test with MCF7 breast and in the test with HT29 colon was greater than 100 µM in each case. The TGI with LOX IMVI melanoma, in the test on NCI-H522 lung and in the test on UO-31 renal was greater than 100 µM each time.

As for `COc1c2c(cc3c1C1(O)Cc4ccc5c(c4C[N+]1(C)CC3)OCO5)OCO2` (configuration not stated), the TGI in the test on SF-539 CNS, in the test on SNB-75 CNS, in the test with M14 melanoma, in the test on TK-10 renal, in the test with MCF7 breast and with COLO 205 colon was greater than 100 µM throughout. Moreover, the TGI with HT29 colon, in the test with LOX IMVI melanoma and in the test on NCI-H522 lung was greater than 100 µM in each case.

For `COc1ccc(C2C3CCCC(C3=O)C(c3ccc(OC)cc3)N2N=O)cc1` (configuration not stated), the TGI in the test with SNB-75 CNS is 62.4 µM; with MCF7 breast, 38.2 µM; in the test with COLO 205 colon it was 42.3 µM; with HT29 colon, 51.2 µM; with LOX IMVI melanoma, 32.5 µM; with NCI-H522 lung, 34.6 µM. For the same compound, the TGI with UO-31 renal was greater than 100 µM.

Take `COc1cccc2cc(C(C)=O)c(=O)oc12`: the TGI in the test with SF-539 CNS, with SNB-75 CNS, with M14 melanoma, in the test on TK-10 renal, in the test on MCF7 breast and in the test on COLO 205 colon was greater than 100 µM throughout. Besides, the TGI with HT29 colon, with LOX IMVI melanoma, in the test with NCI-H522 lung and with UO-31 renal was greater than 100 µM in each case.

Take `O=C(NNS(=O)(=O)c1ccccc1)c1cccnc1`: the TGI in the test with SF-539 CNS, with SNB-75 CNS, in the test with M14 melanoma, in the test with TK-10 renal, in the test on MCF7 breast and in the test on COLO 205 colon was greater than 100 µM throughout. In addition, the TGI in the test with HT29 colon, in the test on LOX IMVI melanoma, with NCI-H522 lung and in the test on UO-31 renal was greater than 100 µM each time.

With `COc1cc(C2c3cc4c(cc3[C@@H](Oc3ccc(F)cc3)C3COC(=O)[C@H]23)OCO4)cc(OC)c1O` (some centres not stated), the TGI in the test on MCF7 breast was greater than 58 µM; with COLO 205 colon it was 4.86 µM; with HT29 colon, 20 µM; with LOX IMVI melanoma it was greater than 100 µM; with NCI-H522 lung it was greater than 100 µM; in the test on UO-31 renal, greater than 100 µM.

Regarding `C[N+]1(CCC[N+]2(C)CC3C4C=CC(CC4)C3C2)CCOCC1` (configuration not stated), the TGI in the test on SF-539 CNS, in the test with SNB-75 CNS, in the test on M14 melanoma, with TK-10 renal, in the test on MCF7 breast and in the test on COLO 205 colon was greater than 100 µM throughout. Also, the TGI in the test on HT29 colon, in the test on LOX IMVI melanoma, with NCI-H522 lung and with UO-31 renal was greater than 100 µM throughout.

As to `O=C(Nc1cccc2ccccc12)c1ccccc1`, the TGI with SF-539 CNS, in the test on SNB-75 CNS, in the test with M14 melanoma, in the test on TK-10 renal, with MCF7 breast and in the test with COLO 205 colon was greater than 100 µM in each case. Further, the TGI in the test on HT29 colon, with LOX IMVI melanoma, with NCI-H522 lung and in the test on UO-31 renal was greater than 100 µM each time.
